Columns and labels:
[1] = Stability assay of solid crystalline form A at high temperature, high humidity, high temperature and high humidity, and illumination; type: physicochemical; details: for Stability and druggability (conclusion in words): solid state stress conditions
Experimental: The samples were placed in conditions of high temperature (60° C.), high humidity (92.5% humidity, 25° C.), high temperature and high humidity (60° C./75% humidity), and under illumination (including in the dark as control) for stability assay. For samples in a 60° C./75% thermostatic incubator and a 92.5% RH desiccator, the vials were sealed using films. On the films 5 small holes were provided to ensure that the sample was in sufficient contact with atmospheric air. For samples at 60° C., under illumination and in the dark, the vials were tightly capped (for the sample in the dark the vial was wrapped with tin foil). The samples were tested on day 10 for high humidity (92.5% humidity) condition, on days 5 and 10 for high temperature (60° C.) condition, on days 10 and 30 for high temperature and high humidity (60° C./75% humidity) condition, and on day 10 for illumination condition.

CXCR2 = molecular target: T1, CXCR2 (Homo sapiens, UniProt P25025); experiment: PathHunter CXCR2 β-arrestin cell assay (CXCL8 agonist, chemiluminescence); type: cell-based; details: listed as crystalline form A of the compound 1
T1 sequence (P25025 1-360): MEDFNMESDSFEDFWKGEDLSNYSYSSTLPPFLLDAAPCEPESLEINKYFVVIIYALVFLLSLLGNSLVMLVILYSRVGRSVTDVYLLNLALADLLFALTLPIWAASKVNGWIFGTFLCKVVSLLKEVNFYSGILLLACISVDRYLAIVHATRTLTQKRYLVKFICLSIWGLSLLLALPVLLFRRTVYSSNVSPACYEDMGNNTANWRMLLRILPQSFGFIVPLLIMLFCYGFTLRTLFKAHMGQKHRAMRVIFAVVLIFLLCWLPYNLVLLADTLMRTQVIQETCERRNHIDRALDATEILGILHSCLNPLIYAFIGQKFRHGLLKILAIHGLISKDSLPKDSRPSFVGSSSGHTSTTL
Experimental: CXCR2 β-arrestin cells (DiscoverX) of PathHunter® were cultured in standard conditions and inoculated at 20 μL/well to a 384-well white microplate. Before testing, the cells were incubated at 37° C. for an appropriate period of time. The test compound was serially 3-fold diluted in DMSO to give 8 concentrations. Shortly before testing, the serially diluted test samples were further diluted with test buffer to 5 folds of the test concentration. 5 μL of further diluted test samples were added to the cells and the cells were incubated at 37° C. for 30 min. The concentration of vehicle was 1%. 5 μL of 6×EC80 agonist (CXCL8) buffer was then added to the cells, and the cells were incubated at 37° C. for 90 min. The test signal was generated by adding 15 μL (50% v/v) of PathHunter detection mixture reagent in one portion and subsequently incubating the cells for 1 h. The chemiluminescence signal of the microplate was read by a PerkinElmer Envision™ instrument. The biological activities of the test compounds were analyzed by CBIS data analysis kit (ChemInnovation, CA), shown as IC50 values.

[2] = Crystalline form stability assay of crystalline form A - solvent water activity; type: physicochemical; details: for Crystalline form (XRPD): 20° C., 4 days
Experimental: The solutions were centrifuged to give precipitates, and the precipitates were dried under vacuum at 50° C. and subjected to XRPD.

[3] = high humidity (92.5% humidity, 25° C.), day 0
[4] = high humidity (92.5% humidity, 25° C.), day 10
[5] = high temperature (60° C.), day 0
[6] = high temperature (60° C.), day 5
[7] = high temperature (60° C.), day 10
[8] = in the dark for 10 days (control)

Appearance ([1]; 60° C./75% humidity, day 0): White powder | Crystalline form ([1]; 60° C./75% humidity, day 0): Crystalline | Appearance ([1]; 60° C./75% humidity, day 10): White powder | Crystalline form ([1]; 60° C./75% humidity, day 10): Crystalline | Appearance ([1]; 60° C./75% humidity, day 30): White powder | Crystalline form ([1]; 60° C./75% humidity, day 30): Crystalline | Appearance [1, 3]: White powder | Crystalline form [1, 3]: Crystalline | Appearance [1, 4]: White powder | Crystalline form [1, 4]: Crystalline | Appearance [1, 5]: White powder | Crystalline form [1, 5]: Crystalline | Appearance [1, 6]: White powder | Crystalline form [1, 6]: Crystalline | Appearance [1, 7]: White powder | Crystalline form [1, 7]: Crystalline | Appearance [1, 8]: White | Crystalline form [1, 8]: Crystalline | Stability and druggability (conclusion in words) ([1]; listed as crystalline form A of compound 1): good stability and druggability | Appearance ([1]; under illumination for 10 days): White | Crystalline form ([1]; under illumination for 10 days): Crystalline | Antagonism against the CXCR2 receptor (in words) (CXCR2): significant inhibitory effect | Stability of the crystalline form in solvents (in words) ([2]; methanol, ethanol, methanol/water, water): stable in the above solvents | Crystalline form (XRPD) ([2]; stirred in ethanol, 100 mg/mL): Crystalline form A | Crystalline form (XRPD) ([2]; stirred in methanol, 100 mg/mL): Crystalline form A | Crystalline form (XRPD) ([2]; stirred in methanol/water = 1/1.5, 100 mg/mL): Crystalline form A | Crystalline form (XRPD) ([2]; stirred in water, 100 mg/mL): Crystalline form A
SMILES: O=C(Nc1ccc(Cl)c(S(=O)(=O)[C@H]2CCCNC2)c1O)N[C@@H]1CCCc2cc(C(F)(F)F)oc21 [crystalline form A]
Stability and druggability (conclusion in words) ([1]; listed as crystalline form A of the compound 1): good stability and desirable druggability

— patent US12577235B2, “Crystalline form of CXCR2 antagonist and application thereof” (Shenzhen Optimum Biological Technology Co., Ltd, priority 2019, dated 2026)
